Measurements: PubChem BioAssay (NCI)
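Five concentrations, 48 hours, 96-well plates. At the TGI there is no net growth.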

What was measured:
Test in all cases: DTP human tumour cell line panel, 48 h
NCI/ADR-RES ovarian = test system: NCI/ADR-RES ovarian
NCI-H460 lung = test system: NCI-H460 lung
SNB-19 CNS = test system: SNB-19 CNS
HCC-2998 colon = test system: HCC-2998 colon
IGROV1 ovarian = test system: IGROV1 ovarian
NCI-H23 lung = test system: NCI-H23 lung
CCRF-CEM leukemia = test system: CCRF-CEM leukemia
MCF7 breast = test system: MCF7 breast
HOP-62 NSCLC = test system: HOP-62 NSCLC
SF-539 CNS = test system: SF-539 CNS
HCT-116 colon = test system: HCT-116 colon
DU-145 prostate = test system: DU-145 prostate
TK-10 renal = test system: TK-10 renal
T-47D breast = test system: T-47D breast
MDA-N = test system: MDA-N

CSc1nc2c(c(=O)n1C)N=C(c1ccc([N+](=O)[O-])cc1)CC(c1ccccc1)N2 (configuration not stated)
TGI (NCI/ADR-RES ovarian): > 100 µM | TGI (NCI-H460 lung): > 100 µM | TGI (SNB-19 CNS): > 100 µM | TGI (HCC-2998 colon): > 100 µM | TGI (IGROV1 ovarian): > 100 µM | TGI (NCI-H23 lung): > 100 µM | TGI (CCRF-CEM leukemia): > 100 µM | TGI (MCF7 breast): > 100 µM | TGI (HOP-62 NSCLC): > 100 µM | TGI (SF-539 CNS): > 100 µM | TGI (HCT-116 colon): > 100 µM | TGI (DU-145 prostate): > 100 µM

CCOC(=O)c1nc2cc(C(F)(F)F)ccc2nc1Nc1ccc(C(=O)OC)s1
TGI (NCI/ADR-RES ovarian): > 100 µM | TGI (TK-10 renal): > 100 µM | TGI (NCI-H460 lung): > 100 µM | TGI (SNB-19 CNS): > 100 µM | TGI (HCC-2998 colon): > 100 µM | TGI (IGROV1 ovarian): > 100 µM | TGI (NCI-H23 lung): > 100 µM | TGI (CCRF-CEM leukemia): > 100 µM | TGI (HOP-62 NSCLC): > 100 µM | TGI (T-47D breast): > 100 µM | TGI (HCT-116 colon): > 100 µM | TGI (DU-145 prostate): > 100 µM

O=C1O[C@H]2[C@H](OC(=O)c3cc(O)c(O)c(O)c3)[C@@H](OC(=O)c3cc(O)c(O)c4c3[C@@H]3C1=CC(=O)C(O)(O)C3(O)O4)[C@H](OC(=O)c1cc(O)c(O)c(O)c1)O[C@@H]2COC(=O)c1cc(O)c(O)c(O)c1 (some centres not stated)
TGI (NCI/ADR-RES ovarian): > 100 µM | TGI (NCI-H460 lung): > 100 µM | TGI (SNB-19 CNS): > 100 µM | TGI (HCC-2998 colon): > 100 µM | TGI (IGROV1 ovarian): > 100 µM | TGI (NCI-H23 lung): > 100 µM | TGI (MDA-N): > 100 µM | TGI (CCRF-CEM leukemia): > 100 µM | TGI (MCF7 breast): > 100 µM | TGI (HOP-62 NSCLC): > 100 µM | TGI (T-47D breast): > 100 µM | TGI (HCT-116 colon): > 100 µM | TGI (DU-145 prostate): > 100 µM

CC(=O)OCC(=O)OC[C@H](OCc1ccccc1)[C@@H]1[C@H](OC(C)=O)C(=O)N1Cc1ccccc1
TGI (NCI/ADR-RES ovarian): > 100 µM | TGI (TK-10 renal): > 100 µM | TGI (SNB-19 CNS): > 100 µM | TGI (IGROV1 ovarian): > 100 µM | TGI (NCI-H23 lung): > 100 µM | TGI (MDA-N): > 100 µM | TGI (CCRF-CEM leukemia): > 100 µM | TGI (MCF7 breast): > 100 µM | TGI (HOP-62 NSCLC): > 100 µM | TGI (HCT-116 colon): > 100 µM | TGI (DU-145 prostate): > 100 µM

CCc1ccc(COC(=O)C2=C(C)NC(C)=C(C(=O)OCc3ccc(CC)cn3)C2C2=COCCO2)nc1
TGI (NCI/ADR-RES ovarian): 63.4 µM | TGI (TK-10 renal): > 100 µM | TGI (NCI-H460 lung): 91.3 µM | TGI (SNB-19 CNS): 54.5 µM | TGI (HCC-2998 colon): 37.7 µM | TGI (IGROV1 ovarian): > 100 µM | TGI (NCI-H23 lung): 51 µM | TGI (CCRF-CEM leukemia): 49.8 µM | TGI (MCF7 breast): 43 µM | TGI (HOP-62 NSCLC): 37.8 µM | TGI (SF-539 CNS): 27.7 µM | TGI (T-47D breast): 36.1 µM | TGI (HCT-116 colon): 31 µM | TGI (DU-145 prostate): > 100 µM

CCN(CC)CCN(C)c1ccc(CO)c2c1C(=O)c1ccccc1S2=O (configuration not stated)
TGI (NCI/ADR-RES ovarian): 3.48 µM | TGI (TK-10 renal): 32.3 µM | TGI (NCI-H460 lung): 27.8 µM | TGI (SNB-19 CNS): 26.9 µM | TGI (HCC-2998 colon): 2.99 µM | TGI (IGROV1 ovarian): 32.8 µM | TGI (NCI-H23 lung): 8.29 µM | TGI (CCRF-CEM leukemia): 9.96 µM | TGI (MCF7 breast): > 34.5 µM | TGI (HOP-62 NSCLC): 8.71 µM | TGI (SF-539 CNS): 3.61 µM | TGI (T-47D breast): 28.2 µM | TGI (HCT-116 colon): 3.97 µM | TGI (DU-145 prostate): 28.3 µM

COc1cccc(C2SC(N)=Nc3c2c(C)nn3C(=O)Cc2ccccc2)c1 (configuration not stated)
TGI (TK-10 renal): > 100 µM | TGI (NCI-H460 lung): > 100 µM | TGI (SNB-19 CNS): > 100 µM | TGI (HCC-2998 colon): > 100 µM | TGI (IGROV1 ovarian): > 100 µM | TGI (NCI-H23 lung): > 100 µM | TGI (MDA-N): > 100 µM | TGI (CCRF-CEM leukemia): > 100 µM | TGI (MCF7 breast): > 100 µM | TGI (HOP-62 NSCLC): > 100 µM | TGI (SF-539 CNS): > 100 µM | TGI (T-47D breast): > 100 µM | TGI (HCT-116 colon): > 100 µM | TGI (DU-145 prostate): > 100 µM

O=C(CSCC(=O)N/N=C\c1cccc([N+](=O)[O-])c1)N/N=C\c1cccc([N+](=O)[O-])c1
TGI (NCI/ADR-RES ovarian): 60 µM | TGI (TK-10 renal): 36.4 µM | TGI (NCI-H460 lung): > 100 µM | TGI (SNB-19 CNS): > 100 µM | TGI (HCC-2998 colon): > 100 µM | TGI (IGROV1 ovarian): 68.7 µM | TGI (NCI-H23 lung): 31.1 µM | TGI (CCRF-CEM leukemia): > 100 µM | TGI (MCF7 breast): > 100 µM | TGI (HOP-62 NSCLC): 16.3 µM | TGI (SF-539 CNS): 84.7 µM | TGI (T-47D breast): > 100 µM | TGI (HCT-116 colon): > 100 µM | TGI (DU-145 prostate): > 100 µM

OC(CN(CCCl)CCCl)C(O)C(O)C(O)CN(CCCl)CCCl (configuration not stated)
TGI (NCI/ADR-RES ovarian): > 100 µM | TGI (TK-10 renal): > 100 µM | TGI (NCI-H460 lung): > 100 µM | TGI (SNB-19 CNS): > 100 µM | TGI (HCC-2998 colon): > 100 µM | TGI (IGROV1 ovarian): > 100 µM | TGI (NCI-H23 lung): > 100 µM | TGI (CCRF-CEM leukemia): > 100 µM | TGI (MCF7 breast): > 100 µM | TGI (HOP-62 NSCLC): > 100 µM | TGI (SF-539 CNS): > 100 µM | TGI (T-47D breast): > 100 µM | TGI (HCT-116 colon): > 100 µM | TGI (DU-145 prostate): > 100 µM

S=c1ncc2c([nH]1)C1c3ccccc3C2c2ccccc21
TGI (TK-10 renal): > 100 µM | TGI (NCI-H460 lung): > 100 µM | TGI (SNB-19 CNS): > 100 µM | TGI (IGROV1 ovarian): > 100 µM | TGI (NCI-H23 lung): > 100 µM | TGI (CCRF-CEM leukemia): > 100 µM | TGI (HOP-62 NSCLC): > 100 µM | TGI (SF-539 CNS): > 100 µM | TGI (HCT-116 colon): > 100 µM

CCCCCc1c(CCCC)c(=O)[nH]c2nc(NC(=O)CCCC)ccc12
TGI (NCI/ADR-RES ovarian): > 100 µM | TGI (TK-10 renal): > 100 µM | TGI (NCI-H460 lung): > 100 µM | TGI (SNB-19 CNS): > 100 µM | TGI (HCC-2998 colon): > 100 µM | TGI (IGROV1 ovarian): > 100 µM | TGI (NCI-H23 lung): > 100 µM | TGI (MDA-N): > 100 µM | TGI (CCRF-CEM leukemia): > 100 µM | TGI (MCF7 breast): > 100 µM | TGI (HOP-62 NSCLC): > 100 µM | TGI (SF-539 CNS): > 100 µM | TGI (T-47D breast): > 100 µM | TGI (HCT-116 colon): > 100 µM

Cn1c2ccccc2c(=O)c2c(O)cc3c(c21)C=CC(C)(C)O3
TGI (NCI/ADR-RES ovarian): > 25 µM | TGI (NCI-H460 lung): > 25 µM | TGI (SNB-19 CNS): > 25 µM | TGI (HCC-2998 colon): > 25 µM | TGI (IGROV1 ovarian): > 25 µM | TGI (NCI-H23 lung): > 25 µM | TGI (CCRF-CEM leukemia): > 25 µM | TGI (MCF7 breast): > 25 µM | TGI (HOP-62 NSCLC): > 25 µM | TGI (SF-539 CNS): > 25 µM | TGI (HCT-116 colon): > 25 µM
